Reference: patent publication US20220175860A1, “DUNALIELLA ALGA PREPARATION FOR PREVENTION AND/OR TREATMENT OF A NEURODEGENERATIVE DISEASE, A DISORDER ASSOCIATED WITH PROTEIN MISFOLDING AND COGNITIVE DECLINE” (TEL HASHOMER MEDICAL RESEARCH INFRASTRUCTURE AND SERVICES …, priority 2019, published 2022)
Like-named read-outs stand apart in the source and are kept apart here.

Assays:
[1] = Tissue carotenoids by HPLC in 5×FAD mice; details: for Amount in brain tissues: 5×FAD mice fed Dunaliella algae diet vs regular diet, HPLC; for Accumulation in liver, fat and brain tissues: 5×FAD study, Dunaliella diet group vs control group
[2] = system: blood brain barrier (BBB) in-vitro model (endothelial cells / glial cells); experiment: In vitro blood brain barrier (BBB) cell culture model, HPLC of carotenoids; format: in vitro ADME, porcine brain endothelial cells, new born rat glial cells
Description: FIG. 5A-FIG. 5C: Schematic drawings of the in vitro blood brain barrier (BBB) cell culture system. The model consists of a monolayer of endothelial cells, forming tight junctions that are grown on a microporous membrane filter culture insert (luminal side) and glial cells seeded at the abluminal side of the filter. Low Density Lipoprotein (LDL, 100 μl 1,600 μg/ml) from a healthy volunteer is added to the luminal side. Cells are incubated for 24 hours and then samples are collected from the luminal and abluminal side and analyzed.
An in vitro model of the blood brain barrier (BBB) was used. The model consists of a monolayer of endothelial cells, obtained from primary cultures of endothelial cells established from freshly collected porcine brain forming tight junctions that are grown on a microporous membrane filter culture insert (the “Luminal side” in FIG. 6) and of a monolayer of glial cells extracted from new born rats' cortex that are seeded at the abluminal side of the filter (the “Abluminal side” in FIG. 6). Low density lipoprotein (LDL, 100 μl, 1,600 μg/ml from a healthy volunteer) was added to the luminal side. Cells were then incubated for 24 hours and thereafter samples were collected and analyzed using HPLC. The model was prepared by first seeding the glial cells on the abluminal side of a filter, a week later, the above-described endothelial cells were seeded on the luminal side of the filter and two days later LDL was added to the luminal side of the filter as indicated above.
LDL was obtained from healthy volunteers by sequential ultracentrifugation (density, 1.063 g/ml), and the concentration was determined by the Lowry method.
Using the “BBB in-vitro model” described above and schematically shown in FIG. 5A, 5B, 5C, glial and endothelial cells were incubated for 24 hours in the presence of LDL (inherently containing all-trans and 9-cis β-carotene) and then samples were collected and carotenoids were extracted and analyzed using HPLC.

[3] = Tissue carotenoids by HPLC in Tg2576 mice; format: in vivo; details: Tg2576 study, mice fed Dunaliella diet vs control diet
From the text: In order to assess whether carotenoid level was higher in brain tissue of Tg2576 mice fed with the Dunaliella diet as compared to the control group, mice brain carotenoids were extracted and then measured using HPLC.

[4] = carotenoids in human LDL added to luminal side, 24 hours incubation, HPLC

Compound	Amount in brain tissues [1]	Accumulation in liver, fat and brain tissues [1]	Crossing of the BBB (luminal to abluminal side) [2, 4]	Tissue levels (liver, fat, brain) [3]	Crossing of the BBB (luminal to abluminal side) [2]
CC1=C(/C=C/C(C)=C/C=C/C(C)=C/C=C/C=C(C)/C=C/C=C(C)/C=C/C2=C(C)CCCC2(C)C)C(C)(C)CCC1 [all-trans β Carotene, all-trans β-carotene]	significantly higher amounts	much higher levels	crossed the BBB	much higher levels	
CC(C)=CCC/C(C)=C/C=C/C(C)=C/C=C/C(C)=C/C=C/C=C(C)/C=C/C=C(C)/C=C/C=C(\C)CCC=C(C)C [lycopene, reference compound]					did not cross the BBB
CC1=C(/C=C/C(C)=C\C=C\C(C)=C\C=C\C=C(C)\C=C\C=C(C)\C=C\C2=C(C)CCCC2(C)C)C(C)(C)CCC1 [9-cis β Carotene, 9-cis β-carotene]	significantly higher amounts	much higher levels	crossed the BBB	much higher levels	
